Columns and labels:
[1] = Ratio of drug uptake in medulla to cerebellum in anesthetized cynomolgus monkey after 1.5 mins postinjection; assay type: ADME, organism-based, Macaca fascicularis; details: in vivo, 0.025 h
Pons [2] = experiment: Drug uptake in anesthetized cynomolgus monkey brain pons after 15.5 mins postinjection; assay type: ADME, organism-based, Macaca fascicularis; details: in vivo
Pons [3] = experiment: Drug uptake in anesthetized cynomolgus monkey brain pons after 145 mins postinjection; assay type: ADME, organism-based, Macaca fascicularis; details: in vivo
[4] = Ratio of drug uptake in putamen to cerebellum in anesthetized cynomolgus monkey after 215 mins postinjection; assay type: ADME, organism-based, Macaca fascicularis; details: in vivo
[5] = Ratio of drug uptake in caudate to cerebellum in anesthetized cynomolgus monkey after 225 mins postinjection; assay type: ADME, organism-based, Macaca fascicularis; details: in vivo, 3.75 h
[6] = Ratio of drug uptake in putamen to cerebellum in anesthetized cynomolgus monkey after 35 mins postinjection; assay type: ADME, organism-based, Macaca fascicularis; details: in vivo
Thalamus [7] = experiment: Drug uptake in anesthetized cynomolgus monkey brain thalamus after 1.5 mins postinjection; assay type: ADME, organism-based, Macaca fascicularis; details: in vivo, 0.025 h
Thalamus [8] = experiment: Drug uptake in anesthetized cynomolgus monkey brain thalamus after 75 mins postinjection; assay type: ADME, organism-based, Macaca fascicularis; design: unit not given here; details: in vivo, 1.25 h
Midbrain [9] = experiment: Drug uptake in anesthetized cynomolgus monkey brain midbrain after 9.5 mins postinjection; assay type: ADME, organism-based, Macaca fascicularis; design: unit not given here; details: in vivo
Putamen [10] = experiment: Drug uptake in anesthetized cynomolgus monkey brain putamen after 12.5 mins postinjection; assay type: ADME, organism-based, Macaca fascicularis; design: unit not given here; details: in vivo
Thalamus [11] = experiment: Drug uptake in anesthetized cynomolgus monkey brain thalamus after 22.5 mins postinjection; assay type: ADME, organism-based, Macaca fascicularis; design: unit not given here; details: in vivo, 0.375 h
Pons [12] = experiment: Drug uptake in anesthetized cynomolgus monkey brain pons after 65 mins postinjection; assay type: ADME, organism-based, Macaca fascicularis; details: in vivo
[13] = Drug uptake in anesthetized cynomolgus monkey brain occipital lobe after 155 mins postinjection; assay type: ADME, organism-based, Macaca fascicularis; details: in vivo
[14] = Ratio of drug uptake in midbrain to cerebellum in anesthetized cynomolgus monkey after 2.5 mins postinjection; assay type: ADME, organism-based, Macaca fascicularis; details: in vivo
[15] = Ratio of drug uptake in caudate to cerebellum in anesthetized cynomolgus monkey after 12.5 mins postinjection; assay type: ADME, organism-based, Macaca fascicularis; details: in vivo
Medulla [16] = experiment: Drug uptake in anesthetized cynomolgus monkey brain medulla after 195 mins postinjection; assay type: ADME, organism-based, Macaca fascicularis; details: in vivo, 3.25 h
[17] = Drug uptake in anesthetized cynomolgus monkey brain occipital lobe after 35 mins postinjection; assay type: ADME, organism-based, Macaca fascicularis; details: in vivo
Thalamus [18] = experiment: Drug uptake in anesthetized cynomolgus monkey brain thalamus after 175 mins postinjection; assay type: ADME, organism-based, Macaca fascicularis; design: unit not given here; details: in vivo
[19] = Drug uptake in anesthetized cynomolgus monkey brain frontal lobe after 35 mins postinjection; assay type: ADME, organism-based, Macaca fascicularis; details: in vivo
Putamen [20] = experiment: Drug uptake in anesthetized cynomolgus monkey brain putamen after 35 mins postinjection; assay type: ADME, organism-based, Macaca fascicularis; design: unit not given here; details: in vivo
Pons [21] = experiment: Drug uptake in anesthetized cynomolgus monkey brain pons after 27.5 mins postinjection; assay type: ADME, organism-based, Macaca fascicularis; details: in vivo
[22] = Drug uptake in anesthetized cynomolgus monkey brain occipital lobe after 0.5 mins postinjection; assay type: ADME, organism-based, Macaca fascicularis; details: in vivo
[23] = Ratio of drug uptake in pons to cerebellum in anesthetized cynomolgus monkey after 18.5 mins postinjection; assay type: ADME, organism-based, Macaca fascicularis; details: in vivo
Pons [24] = experiment: Drug uptake in anesthetized cynomolgus monkey brain pons after 2.5 mins postinjection; assay type: ADME, organism-based, Macaca fascicularis; details: in vivo
[25] = Drug uptake in anesthetized cynomolgus monkey brain occipital lobe after 215 mins postinjection; assay type: ADME, organism-based, Macaca fascicularis; details: in vivo
[26] = Ratio of drug uptake in occipital lobe to cerebellum in anesthetized cynomolgus monkey after 205 mins postinjection; assay type: ADME, organism-based, Macaca fascicularis; details: in vivo
[27] = Ratio of drug uptake in putamen to cerebellum in anesthetized cynomolgus monkey after 75 mins postinjection; assay type: ADME, organism-based, Macaca fascicularis; details: in vivo, 1.25 h
Pons [28] = experiment: Drug uptake in anesthetized cynomolgus monkey brain pons after 165 mins postinjection; assay type: ADME, organism-based, Macaca fascicularis; details: in vivo, 2.75 h
[29] = Ratio of drug uptake in putamen to cerebellum in anesthetized cynomolgus monkey after 155 mins postinjection; assay type: ADME, organism-based, Macaca fascicularis; details: in vivo
Putamen [30] = experiment: Drug uptake in anesthetized cynomolgus monkey brain putamen after 55 mins postinjection; assay type: ADME, organism-based, Macaca fascicularis; design: unit not given here; details: in vivo
Medulla [31] = experiment: Drug uptake in anesthetized cynomolgus monkey brain medulla after 225 mins postinjection; assay type: ADME, organism-based, Macaca fascicularis; details: in vivo, 3.75 h
Medulla [32] = experiment: Drug uptake in anesthetized cynomolgus monkey brain medulla after 155 mins postinjection; assay type: ADME, organism-based, Macaca fascicularis; details: in vivo
Pons [33] = experiment: Drug uptake in anesthetized cynomolgus monkey brain pons after 215 mins postinjection; assay type: ADME, organism-based, Macaca fascicularis; details: in vivo
Caudate [34] = experiment: Drug uptake in anesthetized cynomolgus monkey brain caudate after 0.5 mins postinjection; assay type: ADME, organism-based, Macaca fascicularis, Caudate nucleus; details: in vivo
Thalamus [35] = experiment: Drug uptake in anesthetized cynomolgus monkey brain thalamus after 4.5 mins postinjection; assay type: ADME, organism-based, Macaca fascicularis; design: unit not given here; details: in vivo, 0.075 h
Putamen [36] = experiment: Drug uptake in anesthetized cynomolgus monkey brain putamen after 115 mins postinjection; assay type: ADME, organism-based, Macaca fascicularis; design: unit not given here; details: in vivo
Midbrain [37] = experiment: Drug uptake in anesthetized cynomolgus monkey brain midbrain after 195 mins postinjection; assay type: ADME, organism-based, Macaca fascicularis; details: in vivo, 3.25 h
Midbrain [38] = experiment: Drug uptake in anesthetized cynomolgus monkey brain midbrain after 65 mins postinjection; assay type: ADME, organism-based, Macaca fascicularis; design: unit not given here; details: in vivo
Putamen [39] = experiment: Drug uptake in anesthetized cynomolgus monkey brain putamen after 6.5 mins postinjection; assay type: ADME, organism-based, Macaca fascicularis; design: unit not given here; details: in vivo
Putamen [40] = experiment: Drug uptake in anesthetized cynomolgus monkey brain putamen after 9.5 mins postinjection; assay type: ADME, organism-based, Macaca fascicularis; design: unit not given here; details: in vivo
Midbrain [41] = experiment: Drug uptake in anesthetized cynomolgus monkey brain midbrain after 18.5 mins postinjection; assay type: ADME, organism-based, Macaca fascicularis; design: unit not given here; details: in vivo
Thalamus [42] = experiment: Drug uptake in anesthetized cynomolgus monkey brain thalamus after 55 mins postinjection; assay type: ADME, organism-based, Macaca fascicularis; design: unit not given here; details: in vivo
[43] = Drug uptake in anesthetized cynomolgus monkey brain cerebellum after 0.5 mins postinjection; assay type: ADME, organism-based, Macaca fascicularis; details: in vivo
Caudate [44] = experiment: Drug uptake in anesthetized cynomolgus monkey brain caudate after 3.5 mins postinjection; assay type: ADME, organism-based, Macaca fascicularis, Caudate nucleus; details: in vivo
Pons [45] = experiment: Drug uptake in anesthetized cynomolgus monkey brain pons after 75 mins postinjection; assay type: ADME, organism-based, Macaca fascicularis; details: in vivo, 1.25 h
Midbrain [46] = experiment: Drug uptake in anesthetized cynomolgus monkey brain midbrain after 1.5 mins postinjection; assay type: ADME, organism-based, Macaca fascicularis; design: unit not given here; details: in vivo, 0.025 h
Caudate [47] = experiment: Drug uptake in anesthetized cynomolgus monkey brain caudate after 105 mins postinjection; assay type: ADME, organism-based, Macaca fascicularis, Caudate nucleus; details: in vivo, 1.75 h
Midbrain [48] = experiment: Drug uptake in anesthetized cynomolgus monkey brain midbrain after 185 mins postinjection; assay type: ADME, organism-based, Macaca fascicularis; details: in vivo
[49] = Ratio of drug uptake in caudate to cerebellum in anesthetized cynomolgus monkey after 9.5 mins postinjection; assay type: ADME, organism-based, Macaca fascicularis; details: in vivo
Caudate [50] = experiment: Drug uptake in anesthetized cynomolgus monkey brain caudate after 85 mins postinjection; assay type: ADME, organism-based, Macaca fascicularis, Caudate nucleus; details: in vivo
Caudate [51] = experiment: Drug uptake in anesthetized cynomolgus monkey brain caudate after 175 mins postinjection; assay type: ADME, organism-based, Macaca fascicularis, Caudate nucleus; details: in vivo
[52] = Drug uptake in anesthetized cynomolgus monkey brain frontal lobe after 215 mins postinjection; assay type: ADME, organism-based, Macaca fascicularis; details: in vivo

Compound: O=C(OCC[18F])C1C2CCC(CC1c1ccc(/C=C\I)cc1)N2 (configuration not stated)
- Ratio [1]: 1.4
- Drug uptake (Pons [2]): 2.14
- Drug uptake (Pons [3]): 3.51
- Ratio [4]: 3.3
- Ratio [5]: 2.5
- Ratio [6]: 1.4
- Drug uptake (Thalamus [7]): 0.11
- Drug uptake (Thalamus [8]): 4.02
- Drug uptake (Midbrain [9]): 2.2
- Drug uptake (Putamen [10]): 2.59
- Drug uptake (Thalamus [11]): 2.9
- Drug uptake (Pons [12]): 3.35
- Drug uptake [13]: 2.02
- Ratio [14]: 0.9
- Ratio [15]: 0.8
- Drug uptake (Medulla [16]): 3.41
- Drug uptake [17]: 2.13
- Drug uptake (Thalamus [18]): 3.78
- Drug uptake [19]: 1.86
- Drug uptake (Putamen [20]): 3.57
- Drug uptake (Pons [21]): 2.58
- Drug uptake [22]: 0
- Ratio [23]: 0.9
- Drug uptake (Pons [24]): 0.36
- Drug uptake [25]: 1.68
- Ratio [26]: 1.4
- Ratio [27]: 1.8
- Drug uptake (Pons [28]): 3.54
- Ratio [29]: 2.8
- Drug uptake (Putamen [30]): 4.02
- Drug uptake (Medulla [31]): 3.24
- Drug uptake (Medulla [32]): 3.73
- Drug uptake (Pons [33]): 3.39
- Drug uptake (Caudate [34]): 0
- Drug uptake (Thalamus [35]): 1.21
- Drug uptake (Putamen [36]): 4.34
- Drug uptake (Midbrain [37]): 4.56
- Drug uptake (Midbrain [38]): 4.13
- Drug uptake (Putamen [39]): 1.89
- Drug uptake (Putamen [40]): 2.38
- Drug uptake (Midbrain [41]): 2.78
- Drug uptake (Thalamus [42]): 3.78
- Drug uptake [43]: 0
- Drug uptake (Caudate [44]): 0.56
- Drug uptake (Pons [45]): 3.39
- Drug uptake (Midbrain [46]): 0.1
- Drug uptake (Caudate [47]): 3.13
- Drug uptake (Midbrain [48]): 4.64
- Ratio [49]: 0.7
- Drug uptake (Caudate [50]): 3.03
- Drug uptake (Caudate [51]): 3
- Drug uptake [52]: 1.6
